{"source": "patent US7265097B2", "about": "“Methods of drug delivery using sulphated chitinous polymers” (Chitogenics, Inc., priority 2002, dated 2007)", "key": {"Caco-2 cells": {"system": "Caco-2 cells", "assay": "TEER of Caco-2 cells treated with sulphated chitinous polymers", "assay_type": "cell-based", "experimental": "The Caco-2 intestinal epithelial cells used in this example form apically tight junctions that seal the paracellular pathways. Disruption of the tight junctions' barrier leads to increased paracellular permeability of hydrophilic drugs that are poorly absorbed across the intestine. The integrity of the tight junctions can be determined by measuring decreases in the transepithelial electrical resistance (TEER) when the tight junctions are opened.\nCaco-2 cell cultures were seeded initially from cryovials (stored in liquid nitrogen) to flasks and treated with trypsin. After trypsin treatment, cells were seeded on the Costar Transwell filters (24-well plates, Costar Europe, Badhoevedorp, The Netherlands) at a seeding density of 10^4 cells/cm^2. Dulbecco's Modified Eagle's Medium (DMEM, Sigma, Bornem; Belgium; pH=7.4), supplemented with 1% nonessential amino acids, 10%, fetal calf serum (Hyclone, Greiner, The Netherlands), benzyl-penicillin G (160 U/ml) and streptomycin sulfate (100 μg/ml) (Sigma) was used as culture medium, and was added to both the donor and the acceptor compartment. […]\nS-OCC(N-sulphated O-carboxymethyl chitosan), S-NOCC(N-sulphated N,O-carboxymethyl chitosan), and S-SAN (N-sulphated chitosan) were applied on the Caco-2 cell cultures and TEER was measured for 4 hours. […] The TEER was also recorded at 24 hrs after application to investigate the viability of the monolayers."}, "[1]": {"set-up": "species or system rats", "details": "rat, in vivo", "experimental": "The effect of S-NOCCs (N-sulphated N,O-carboxymethyl chitosans) as primary carriers in vivo was tested using rats. Male Wistar rats (SPF status, approximately 250 g) were obtained from Charles River (NL). The animals were fasted for 16 hours before administration with free access to water. The animals were anesthetized with Hypnorm (fentanyl citrate) and Dormicum (midazolam). The body temperature of the rats was kept at 36-37° C. and was monitored throughout the experiment.\nReviparin LMWH (Reviparin, Knoll, 108 Anti-XaU/mg) solution was prepared in physiological saline at 625 anti Xa U/ml.\nS-NOCC was tested at two viscosities 40 and 60 cps (S-NOCC40 and S-NOCC60), representing a lower and higher molecular weight chitinous polymer respectively. The S-NOCCs were dissolved at 3% (w/v) in the reviparin solution to form a viscous gel.\nIn order to administer the LMWH formulations, a thin Teflon tube (˜1 mm i.d.) was used for the control (no polymer). In order to administer the S-NOCC formulations, a polypropylene tube with i.d. ˜3 mm was used to facilitate the viscous gels for their administration. Both tubes were connected to a syringe.\nThe abdomen of the animals was opened by an incision and the stomach was moved towards the incision point. A small incision at the stomach was made to allow each tube to be guided via the pylorus to the beginning of the duodenum (first 2-3 cm.). Formulation were administered slowly over 5 min and at +/− 2 ml normalized for the body weight of each animal to assure administration of 5000 Anti-Xa U/kg.\nBlood samples, ˜225 μl, were collected from the tail vein capillaries (after incision) in Eppendorf vials containing 25 μl sodium citrate 3.8%. The samples were centrifuged at 13000 rpm for 20 min.\nAnalysis of samples was performed using the Chromostrate heparin Anti-Xa assay (Organon Teknika, NL). […] The release of pNA was measured by an end-point method at 405 nm in an EL808 ultra microplate reader (Biotek Instruments Inc.). […]"}}}
{"substance": "Sulphated Chitosan [S-SAN]", "values": [{"measurement": "disruption of the tight junctions between Caco-2 epithelial cells", "setting": "Caco-2 cells", "result": "able to effectively disrupt the tight junctions"}]}
{"substance": "N-sulphated N,O-carboxymethyl chitosan [S-NOCC40]", "values": [{"measurement": "absorption of the LMWH (plasma anti-Xa level, relative to antithrombotic level)", "setting": "[1]", "result": "≥ 0.2", "unit": "Anti-Xa U/ml"}, {"measurement": "time over which absorption of LMWH was sustained", "setting": "[1]", "result": 6, "unit": "h"}]}
{"substance": "Reviparin [reference compound]", "values": [{"measurement": "intestinal absorption of LMWH", "setting": "[1]", "result": "limited"}]}
